# Test results from patent publication US8742082B2, “Compositions and methods for influencing satiety, lipid metabolism, and fat utilization” (Nestec S.A., priority 2008, dated 2014).
# Key:
# Type in all cases: in vivo
# CPT1 = experiment: Real-time PCR gene expression in peripheral tissues: CPT1; conditions: C57bl6j mice, high fat diet, 100 mg/kg/body weight in diet, 5 weeks
# Experimental: (§1) The expression of 45 genes was measured by real-time PCR in peripheral tissues to identify genes that were differentially expressed in response to oral administration of oleoylethanolamide (OEA) or a non-hydrolysable OEA analog (KDS 5104), which affect satiety, lipid metabolism, fat utilization, food intake, and body fat mass.
# (§2) Animals, diet, and experimental design. Adult male C57bl6j mice purchased at 8 weeks of age were individually housed and maintained ad libitum on high fat diet and water for 2 weeks. Seven mice were randomly allocated in 3 groups and fed with a high fat diet (lipids represented 50% of daily energy) for 2 weeks. For one kilogram, the composition of the high fat diet was: 235 g casein, 201 g saccharose, 3.5 g L-cystine, 85 g starch, 116 g maltodextrin, 60 g cellulose, 12 g vitamins mix (AIN-93M, UPAE, Jouy-en-Josas, France), 51.5 g mineral mix (AIN-93Vx, UPAE, Jouy-en-Josas, France), and 236 g lard. Then, either OEA or KDS 5104 was added to the diet at a concentration of 100 mg/kg/body weight. The mice were kept under treatment for 5 weeks.
# (§3) Sampling. At the end of the experimental period, mice were sacrificed by blood drawing (cardiac puncture) after anesthesia with isoflurane. Plasma was obtained by centrifugation (1,000 g for 10 min at 4° C.). Mesenteric, epididymal, inguinal and peritoneal adipose depots, as well as liver, stomach, small intestine mucosa, pancreas, and gastrocnemian muscle were removed and frozen into liquid nitrogen. Plasma, urine, feces, and organ samples were kept at −80° C. until analysis.
# (§4) RNA extraction and gene expression. Total RNA from liver, intestine mucous membrane, adipose tissues, gastrocnemian muscle, pancreas and stomach were extracted with TRIzol reagent (Invitrogen, Carlsbad, USA) according to the manufacturer's instruction. The RNA concentration was determined on nanodrop from the absorbance at 260 nm. Retro-transcription PCRs to synthesize cDNA were performed using an Applied Biosystem Thermal Cycler 2720 and Superscript II (Invitrogen, Carlsbad, USA) according to manufacturer's protocol. Real-time quantitative PCR (RT-qPCR) were performed on cDNA obtained as described above using a high through put system (Biomek 3000, Beckman & Coulter, Fullerton, USA) and a Lightcycler 480 (Roche/Hitachi, Basel, Switzerland) with SYBR Green Master mix+kit (Eurogentec, Philadelphia, USA). Primers for the selected genes were generated using online informatics assistance from the Lightcycler manufacturer (Roche). Databases used to identify the genes were (1) the NCBI database (GenBank) and (2) the IHOP (Information Hyperlinked over Protein) database (www.ihop-net.org/UniPub/iHOP/bng/). Values were expressed as ratio of RNA levels relative to control mice (diets with 0 mg of OEA/kg/body weight) using ΔΔ(Ct) (Livak K J & Schmittgen T D, 2001, Methods 25:402-8). Gene expression of the following genes was measured (abbreviation and GenBank Accession shown in parentheses).
# (§5) Statistical analysis. […] Statistical analysis of physiological parameters and gene expression data was performed by one-way ANOVA on Statview software (SAS Institute, Cary, USA). Daily food intake was analyzed using two-way ANOVA on Statview software. Statistical significance was set up at the P<0.05 level, the P<0.01 level and the P<0.001 level. For statistical analysis of the gene expression data, values were calculated relative to 18S expression for each mouse and gene.
# [1] = tested on: Uncoupling protein 2 (UCP2); experiment: Real-time PCR gene expression in peripheral tissues: UCP2; conditions: muscle; C57bl6j mice, high fat diet, 100 mg/kg/body weight in diet, 5 weeks
# Experimental: as §1
# (§6) Animals, diet, and experimental design. Adult male C57bl6j mice purchased at 8 weeks of age were individually housed and maintained ad libitum on high fat diet and water for 2 weeks. Seven mice were randomly allocated in 3 groups and fed with a high fat diet (lipids represented 50% of daily energy) for 2 weeks. […]
# (§7) RNA extraction and gene expression. […] The RNA concentration was determined on nanodrop from the absorbance at 260 nm. […] Real-time quantitative PCR (RT-qPCR) were performed on cDNA obtained as described above using a high through put system (Biomek 3000, Beckman & Coulter, Fullerton, USA) and a Lightcycler 480 (Roche/Hitachi, Basel, Switzerland) with SYBR Green Master mix+kit (Eurogentec, Philadelphia, USA). […] Values were expressed as ratio of RNA levels relative to control mice (diets with 0 mg of OEA/kg/body weight) using ΔΔ(Ct) (Livak K J & Schmittgen T D, 2001, Methods 25:402-8). Gene expression of the following genes was measured (abbreviation and GenBank Accession shown in parentheses). […]
# [2] = tested on: Fatty Acid Synthase (FAS 1); experiment: Real-time PCR gene expression in peripheral tissues: FAS; conditions: liver; C57bl6j mice, high fat diet, 100 mg/kg/body weight in diet, 5 weeks
# Experimental: as §1, §6, §7
# [3] = tested on: Sterol regulatory element binding protein-c 1 (SREBP 1c); experiment: Real-time PCR gene expression in peripheral tissues: SREBP1c; conditions: C57bl6j mice, high fat diet, 100 mg/kg/body weight in diet, 5 weeks
# Experimental: as §1, §2, §3, §4, §5
# [4] = tested on: Fasting induced adipocyte factor (Fiaf); experiment: Real-time PCR gene expression in peripheral tissues: Fiaf; conditions: C57bl6j mice, high fat diet, 100 mg/kg/body weight in diet, 5 weeks
# Experimental: as §1, §2, §3, §4, §5
# Visfatin = experiment: Real-time PCR gene expression in peripheral tissues: visfatin; conditions: C57bl6j mice, high fat diet, 100 mg/kg/body weight in diet, 5 weeks
# Experimental: as §1, §2, §3
# RNA extraction and gene expression. Total RNA from liver, intestine mucous membrane, adipose tissues, gastrocnemian muscle, pancreas and stomach were extracted with TRIzol reagent (Invitrogen, Carlsbad, USA) according to the manufacturer's instruction. The RNA concentration was determined on nanodrop from the absorbance at 260 nm. […] Real-time quantitative PCR (RT-qPCR) were performed on cDNA obtained as described above using a high through put system (Biomek 3000, Beckman & Coulter, Fullerton, USA) and a Lightcycler 480 (Roche/Hitachi, Basel, Switzerland) with SYBR Green Master mix+kit (Eurogentec, Philadelphia, USA). […] Values were expressed as ratio of RNA levels relative to control mice (diets with 0 mg of OEA/kg/body weight) using ΔΔ(Ct) (Livak K J & Schmittgen T D, 2001, Methods 25:402-8). Gene expression of the following genes was measured (abbreviation and GenBank Accession shown in parentheses).
# Statistical analysis. […] Daily food intake was analyzed using two-way ANOVA on Statview software. […] For statistical analysis of the gene expression data, values were calculated relative to 18S expression for each mouse and gene.
# Ghrelin = experiment: Real-time PCR gene expression in peripheral tissues: ghrelin; conditions: stomach; C57bl6j mice, high fat diet, 100 mg/kg/body weight in diet, 5 weeks
# Experimental: as §1, §6, §7
# [5] = tested on: N-acylsphingosine amidohydrolase-like (NAAA); experiment: Real-time PCR gene expression in peripheral tissues: NAAA; conditions: C57bl6j mice, high fat diet, 100 mg/kg/body weight in diet, 5 weeks
# Experimental: as §1, §2, §3, §4, §5
# [6] = tested on: Glucose transporter 4 (Glut 4); experiment: Real-time PCR gene expression in peripheral tissues: Glut 4; conditions: muscle; C57bl6j mice, high fat diet, 100 mg/kg/body weight in diet, 5 weeks
# Experimental: as §1, §6, §7
# [7] = tested on: Phosphoenolpyruvate carboxykinase (PEP CK); experiment: Real-time PCR gene expression in peripheral tissues: PepCK; conditions: liver; C57bl6j mice, high fat diet, 100 mg/kg/body weight in diet, 5 weeks
# Experimental: as §1, §6, §7
compound,measurement,setting,value
"CCCCCCCC/C=C\CCCCCCCC(=O)NCCO [OEA, N-oleoyl-ethanolamide]","CPT1 l, ratio of RNA levels relative to control mice",CPT1; liver,1.74
same,"CPT1 p, ratio of RNA levels relative to control mice",CPT1; pancreas,1.35
same,"CPT1 i, ratio of RNA levels relative to control mice",CPT1; proximal intestine,2.00
same,"UCP2 m, ratio of RNA levels relative to control mice",[1],1.19
same,"FAS l, ratio of RNA levels relative to control mice",[2],1.65
same,"SREBP1c at ep, ratio of RNA levels relative to control mice",[3]; epidydimal adipose tissue,1.08
same,"SREBP1c l, ratio of RNA levels relative to control mice",[3]; liver,1.24
same,"SREBP1c at per, ratio of RNA levels relative to control mice",[3]; peritoneal adipose tissue,−1.39
same,"Fiaf at ep, ratio of RNA levels relative to control mice",[4]; epidydimal adipose tissue,−1.41
same,"Fiaf at per, ratio of RNA levels relative to control mice",[4]; peritoneal adipose tissue,−2.42
same,"Fiaf i, ratio of RNA levels relative to control mice",[4]; proximal intestine,1.15
same,"visfatin at ep, ratio of RNA levels relative to control mice",Visfatin; epidydimal adipose tissue,−1.55
same,"visfatin at per, ratio of RNA levels relative to control mice",Visfatin; peritoneal adipose tissue,−1.80
same,"ghrelin s, ratio of RNA levels relative to control mice",Ghrelin,1.98
same,"NAAA at ep, ratio of RNA levels relative to control mice",[5]; epidydimal adipose tissue,1.36
same,"NAAA at per, ratio of RNA levels relative to control mice",[5]; peritoneal adipose tissue,1.03
same,"NAAA i, ratio of RNA levels relative to control mice",[5]; proximal intestine,1.85
same,"Glut 4 m, ratio of RNA levels relative to control mice",[6],3.27
same,"PepCK l, ratio of RNA levels relative to control mice",[7],1.02
